US20060079566A1, “PDK-1/Akt signaling inhibitors” (priority 2003, published 2006)

Experiments:
K-562 = assay: NCI DTP screen (SRB), Leukemia; type: cell-based; settings: Homo sapiens
Method: (§1) Screening of compounds 70 and 71 against several cancer cell lines The human tumor cell lines of the cancer screening panel are grown in RPMI 1640 medium containing 5% fetal bovine serum and 2 mM L-glutamine. For a typical screening experiment, cells are inoculated into 96 well microtiter plates in 100 μL at plating densities ranging from 5,000 to 40,000 cells/well depending on the doubling time of individual cell lines. After cell inoculation, the microtiter plates are incubated at 37° C., 5% CO2, 95% air and 100% relative humidity for 24 h prior to addition of experimental drugs.
(§2) After 24 h, two plates of each cell line are fixed in situ with TCA, to represent a measurement of the cell population for each cell line at the time of drug addition (Tz). Experimental drugs are solubilized in dimethyl sulfoxide at 400-fold the desired final maximum test concentration and stored frozen prior to use. At the time of drug addition, an aliquot of frozen concentrate is thawed and diluted to twice the desired final maximum test concentration with complete medium containing 50 μg/ml gentamicin. Additional four, 10-fold or ½ log serial dilutions are made to provide a total of five drug concentrations plus control. Aliquots of 100 μl of these different drug dilutions are added to the appropriate microtiter wells already containing 100 μl of medium, resulting in the required final drug concentrations.
(§3) Following drug addition, the plates are incubated for an additional 48 h at 37° C., 5% CO2, 95% air, and 100% relative humidity. For adherent cells, the assay is terminated by the addition of cold TCA. Cells are fixed in situ by the gentle addition of 50 μl of cold 50% (w/v) TCA (final concentration, 10% TCA) and incubated for 60 minutes at 4° C. The supernatant is discarded, and the plates are washed five times with tap water and air dried. Sulforhodamine B (SRB) solution (100 μl) at 0.4% (w/v) in 1% acetic acid is added to each well, and plates are incubated for 10 minutes at room temperature. After staining, unbound dye is removed by washing five times with 1% acetic acid and the plates are air dried. Bound stain is subsequently solubilized with 10 mM trizma base, and the absorbance is read on an automated plate reader at a wavelength of 515 nm. For suspension cells, the methodology is the same except that the assay is terminated by fixing settled cells at the bottom of the wells by gently adding 50 μl of 80% TCA (final concentration, 16% TCA). Using the seven absorbance measurements [time zero, (Tz), control growth, (C), and test growth in the presence of drug at the five concentration levels (Ti)], the percentage growth is calculated at each of the drug concentrations levels. Percentage growth inhibition is calculated as: [(Ti−Tz)/(C−Tz)]×100 for concentrations for which Ti>/=Tz [(Ti−Tz)/Tz]×100 for concentrations for which Ti<Tz
(§4) Three dose response parameters are calculated for each experimental agent. […] The drug concentration resulting in total growth inhibition (TGI) is calculated from Ti=Tz. […] Values are calculated for each of these three parameters if the level of activity is reached; however, if the effect is not reached or is exceeded, the value for that parameter is expressed as greater or less than the maximum or minimum concentration tested.

MOLT-4 = assay: NCI DTP screen (SRB), Leukemia; type: cell-based; settings: Homo sapiens
Method: as §1, §2, §3, §4

RPMI-8226 = assay: NCI DTP screen (SRB), Leukemia; type: cell-based; settings: Homo sapiens
Method: as §1, §2, §3, §4

SR = assay: NCI DTP screen (SRB), Leukemia; type: cell-based
Method: as §1, §2, §3, §4

HT29 = assay: NCI DTP screen (SRB), Colon Cancer; type: cell-based; settings: Homo sapiens, HT-29
Method: (§6) After 24 h, two plates of each cell line are fixed in situ with TCA, to represent a measurement of the cell population for each cell line at the time of drug addition (Tz). Experimental drugs are solubilized in dimethyl sulfoxide at 400-fold the desired final maximum test concentration and stored frozen prior to use. […]
(§7) Following drug addition, the plates are incubated for an additional 48 h at 37° C., 5% CO2, 95% air, and 100% relative humidity. […] Bound stain is subsequently solubilized with 10 mM trizma base, and the absorbance is read on an automated plate reader at a wavelength of 515 nm. […] Using the seven absorbance measurements [time zero, (Tz), control growth, (C), and test growth in the presence of drug at the five concentration levels (Ti)], the percentage growth is calculated at each of the drug concentrations levels. Percentage growth inhibition is calculated as: [(Ti−Tz)/(C−Tz)]×100 for concentrations for which Ti>/=Tz [(Ti−Tz)/Tz]×100 for concentrations for which Ti<Tz […]

SF-268 = assay: NCI DTP screen (SRB), CNS Cancer; type: cell-based
Method: as §1, §2, §3, §4

SF-295 = assay: NCI DTP screen (SRB), CNS Cancer; type: cell-based; settings: Homo sapiens
Method: as §1, §2, §3, §4

SNB-19 = assay: NCI DTP screen (SRB), CNS Cancer; type: cell-based; settings: Homo sapiens
Method: as §1, §2, §3, §4

LOX IMVI = assay: NCI DTP screen (SRB), Melanoma; type: cell-based; settings: Homo sapiens, LOX IMVI
Method: as §1, §2, §3, §4

M14 = assay: NCI DTP screen (SRB), Melanoma; type: cell-based; settings: Homo sapiens
Method: as §1, §2, §3, §4

SK-MEL-2 = assay: NCI DTP screen (SRB), Melanoma; type: cell-based
Method: as §1, §2, §3, §4

SK-MEL-5 = assay: NCI DTP screen (SRB), Melanoma; type: cell-based; settings: Homo sapiens
Method: as §1, §2, §3, §4

RXP 393 = assay: NCI DTP screen (SRB), Renal Cancer; type: cell-based, human
Method: as §1, §2, §3, §4

UO-31 = assay: NCI DTP screen (SRB), Renal Cancer; type: cell-based, human; settings: Homo sapiens, UO-31
Method: as §1, §2, §3, §4

DU-145 = assay: NCI DTP screen (SRB), Prostate Cancer; type: cell-based; settings: Homo sapiens
Method: as §1, §2
(§5) Following drug addition, the plates are incubated for an additional 48 h at 37° C., 5% CO2, 95% air, and 100% relative humidity. For adherent cells, the assay is terminated by the addition of cold TCA. Cells are fixed in situ by the gentle addition of 50 μl of cold 50% (w/v) TCA (final concentration, 10% TCA) and incubated for 60 minutes at 4° C. […] Bound stain is subsequently solubilized with 10 mM trizma base, and the absorbance is read on an automated plate reader at a wavelength of 515 nm. […] Using the seven absorbance measurements [time zero, (Tz), control growth, (C), and test growth in the presence of drug at the five concentration levels (Ti)], the percentage growth is calculated at each of the drug concentrations levels. Percentage growth inhibition is calculated as: [(Ti−Tz)/(C−Tz)]×100 for concentrations for which Ti>/=Tz [(Ti−Tz)/Tz]×100 for concentrations for which Ti<Tz
as §4

PC-3 = assay: NCI DTP screen (SRB), Prostate Cancer; type: cell-based; settings: Homo sapiens
Method: as §1, §2, §5, §4

HS 57BT = assay: NCI DTP screen (SRB), Breast Cancer; type: cell-based
Method: as §1, §2, §3, §4

MDA-MB-231/ATCC = assay: NCI DTP screen (SRB), Breast Cancer; type: cell-based
Method: as §1, §2, §3, §4

MDA-MB-435 = assay: NCI DTP screen (SRB), Breast Cancer; type: cell-based; settings: Homo sapiens
Method: as §1, §2, §3, §4

NCI/ADR-RES = assay: NCI DTP screen (SRB), Breast Cancer; type: cell-based; settings: Homo sapiens
Method: as §1, §2, §3, §4

T-47D = assay: NCI DTP screen (SRB), Breast Cancer; type: cell-based
Method: as §1, §2, §3, §4

BT-549 = assay: NCI DTP screen (SRB), Breast Cancer; type: cell-based; settings: Homo sapiens
Method: as §6, §7

NCC(=O)Nc1ccc(-n2nc(C(F)(F)F)cc2-c2ccc3c(ccc4ccccc43)c2)cc1 [Compound 70, 2-Amino-N-{4-[5-(2-phenanthrenyl)-3-(trifluoromethyl)-1H-pyrazol-1-yl]-phenyl}-acetamide] showed a CC50 (K-562; K562, read-out: LC50) greater than 100000 nM, a GI50 (K-562; K562, K-562) of 257 nM and a GI50 (MOLT-4; MOLT-4) of 636 nM. It also gave a CC50 (MOLT-4; MOLT-4, read-out: LC50) greater than 100000 nM, a GI50 (RPMI-8226) of 537 nM and a GI50 (SR; Homo sapiens) of 711 nM. For the same compound, the CC50 (SR; Homo sapiens, read-out: LC50) was greater than 100000 nM, the “Mean Optical Densities” value (SR; Log10 Concentration −8.0) was 0.816 and the GI50 (HT29) was 858 nM. The GI50 (SF-268; Homo sapiens, SF-268) was 1110 nM, the CC50 (SF-268; Homo sapiens, SF-268, read-out: LC50) was greater than 100000 nM and the “Percent Growth” value (SF-268; SF-268, Log10 Concentration −4.0) was −26%. The GI50 (SF-295; SF-295) was 1280 nM, the CC50 (SF-295; SF-295, read-out: LC50) was greater than 100000 nM and the GI50 (SNB-19) was 1180 nM. The GI50 (LOX IMVI) was 836 nM, the GI50 (M14; M14) was 2100 nM and the CC50 (M14; M14, read-out: LC50) was greater than 100000 nM. For the same compound, the GI50 (SK-MEL-2; Homo sapiens, SK-MEL-2) was 2330 nM, the CC50 (SK-MEL-2; Homo sapiens, SK-MEL-2, read-out: LC50) was greater than 100000 nM and the “Percent Growth” value (SK-MEL-2; SK-MEL-2, Log10 Concentration −5.0) was −67%. For the same compound, the GI50 (SK-MEL-5) was 1360 nM, the GI50 (RXP 393; Homo sapiens) was 1140 nM and the “Percent Growth” value (RXP 393; Log10 Concentration −4.0) was 10%. The “Mean Optical Densities” value (RXP 393; Log10 Concentration −7.0) was 0.700, the “Mean Optical Densities” value (RXP 393; Log10 Concentration −8.0) was 0.766 and the GI50 (UO-31) was 1370 nM. It also gave a GI50 (DU-145; DU-145) of 1730 nM, a CC50 (DU-145; DU-145, read-out: LC50) of 6950 nM and a GI50 (PC-3; PC-3) of 705 nM. The CC50 (PC-3; PC-3, read-out: LC50) was 6020 nM, the “Percent Growth” value (HS 57BT; HS 57BT, Log10 Concentration −5.0) was −34% and the “Percent Growth” value (HS 57BT; HS 57BT, Log10 Concentration −6.0) was 88%. It also gave a CC50 (HS 57BT; Homo sapiens, read-out: LC50) greater than 100000 nM, a GI50 (HS 57BT; Homo sapiens, HS 57BT) of 2050 nM and a CC50 (MDA-MB-231/ATCC; Homo sapiens, MDA-MB-231, read-out: LC50) of 6670 nM. The GI50 (MDA-MB-231/ATCC; Homo sapiens, MDA-MB-231/ATCC) was 1150 nM, the “Mean Optical Densities” value (MDA-MB-231/ATCC; MDA-MB-231/ATCC, Log10 Concentration −8.0) was 1.988 and the GI50 (MDA-MB-435) was 1350 nM. The GI50 (NCI/ADR-RES) was 954 nM, the CC50 (NCI/ADR-RES; read-out: LC50) was 8280 nM and the GI50 (T-47D; Homo sapiens, T47D) was 1820 nM. For the same compound, the “Percent Growth” value (T-47D; Log10 Concentration −4.0) was −64%, the GI50 (BT-549; BT-549) was 1250 nM and the CC50 (BT-549; BT-549, read-out: LC50) was 6980 nM.
